Reference: ChEMBL document CHEMBL1201862, “PubChem BioAssay data set” (2004)
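Briefly, cells in 96-well plates were exposed to five compound concentrations for 48 h, and endpoints were estimated by linear interpolation. The concentration for 50% growth inhibition is given as GI50.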 Calls of active or inactive are those of the source. No stated cut-off is given here; in the data, active = GI50 up to about 1.1 µM and inactive = higher.

What was measured:
Assay in all cases: NCI-60 cell line screen, 48 h
[1] = system: UACC-257
[2] = system: OVCAR-3
[3] = system: SF-268
[4] = system: RXF 393
[5] = system: SR
[6] = system: SF-539
[7] = system: OVCAR-4
[8] = system: UACC-62
[9] = system: HL-60
[10] = system: A498
[11] = system: LOX IMVI
[12] = system: DLD-1
[13] = system: LXFL 529
[14] = system: KM-20L2
[15] = system: SF-295
[16] = system: OVCAR-8
[17] = system: Malme-3M
[18] = system: RPMI-8226
[19] = system: HCC 2998
[20] = system: M14
[21] = system: IGROV-1
[22] = system: NCI-H23
[23] = system: DMS-273
[24] = system: SNB-19
[25] = system: HT-29
[26] = system: HCT-116
[27] = system: SK-OV-3
[28] = system: CAKI-1
[29] = system: HOP-62
[30] = system: SNB-75
[31] = system: CCRF-CEM
[32] = system: HCT-15
[33] = system: SN12C
[34] = system: NCI-H226
[35] = system: MOLT-4
[36] = system: SK-MEL-28
[37] = system: SNB-78
[38] = system: K562
[39] = system: M19-MEL
[40] = system: SK-MEL-5
[41] = system: EKVX
[42] = system: A549
[43] = system: TK-10
[44] = system: NCI-H460
[45] = system: DMS-114
[46] = system: SW-620
[47] = system: 786-0
[48] = system: NCI-H522
[49] = system: HOP-92
[50] = system: UO-31
[51] = system: KM12
[52] = system: HOP-18
[53] = system: ACHN
[54] = system: OVCAR-5
[55] = system: COLO 205
[56] = system: XF498
[57] = system: SK-MEL-2
[58] = system: U-251
[59] = system: RXF 631

SMILES: O=C1CCCCC1S(=O)(=O)c1ccccc1 (stereo not given)
- GI50 [1]: > 100 µM (inactive)
- GI50 [2]: > 100 µM (inactive)
- GI50 [3]: > 100 µM (inactive)
- GI50 [4]: > 100 µM (inactive)
- GI50 [5]: > 100 µM (inactive)
- GI50 [6]: > 100 µM (inactive)
- GI50 [7]: > 100 µM (inactive)
- GI50 [8]: > 100 µM (inactive)
- GI50 [9]: > 100 µM (inactive)
- GI50 [10]: > 100 µM (inactive)
- GI50 [11]: > 100 µM (inactive)
- GI50 [12]: > 100 µM (inactive)
- GI50 [13]: > 100 µM (inactive)
- GI50 [14]: > 100 µM (inactive)
- GI50 [15]: > 100 µM (inactive)
- GI50 [16]: > 100 µM (inactive)
- GI50 [17]: > 100 µM (inactive)
- GI50 [18]: > 100 µM (inactive)
- GI50 [19]: > 100 µM (inactive)
- GI50 [20]: > 100 µM (inactive)
- GI50 [21]: > 100 µM (inactive)
- GI50 [22]: > 100 µM (inactive)
- GI50 [23]: > 100 µM (inactive)
- GI50 [24]: > 100 µM (inactive)
- GI50 [25]: > 100 µM (inactive)
- GI50 [26]: > 100 µM (inactive)
- GI50 [27]: > 100 µM (inactive)
- GI50 [28]: > 100 µM (inactive)
- GI50 [29]: > 100 µM (inactive)
- GI50 [30]: > 100 µM (inactive)
- GI50 [31]: > 100 µM (inactive)
- GI50 [32]: > 100 µM
- GI50 [33]: > 100 µM (inactive)
- GI50 [34]: > 100 µM (inactive)
- GI50 [35]: > 100 µM (inactive)
- GI50 [36]: > 100 µM (inactive)
- GI50 [37]: > 100 µM (inactive)
- GI50 [38]: > 100 µM (inactive)
- GI50 [39]: > 100 µM (inactive)
- GI50 [40]: > 100 µM (inactive)
- GI50 [41]: > 100 µM (inactive)
- GI50 [42]: > 100 µM (inactive)
- GI50 [43]: > 100 µM (inactive)
- GI50 [44]: > 100 µM (inactive)
- GI50 [45]: > 100 µM (inactive)
- GI50 [46]: > 100 µM (inactive)
- GI50 [47]: > 100 µM (inactive)
- GI50 [48]: > 100 µM (inactive)
- GI50 [49]: > 100 µM (inactive)
- GI50 [50]: > 100 µM (inactive)
- GI50 [51]: > 100 µM (inactive)
- GI50 [52]: > 100 µM (inactive)
- GI50 [53]: > 100 µM (inactive)
- GI50 [54]: > 100 µM (inactive)
- GI50 [55]: > 100 µM (inactive)
- GI50 [56]: > 100 µM (inactive)
- GI50 [57]: > 100 µM (inactive)
- GI50 [58]: > 100 µM (inactive)

SMILES: N#CCC(=O)N/N=C1/C(=O)N(c2cc(Cl)ccc2Cl)C(=O)C(=O)C1c1nc2ccccc2s1 (stereo not given)
- GI50 [1]: > 100 µM (inactive)
- GI50 [2]: 54.6 µM (inactive)
- GI50 [3]: 88.3 µM (inactive)
- GI50 [4]: < 0.01 µM (active)
- GI50 [6]: > 100 µM (inactive)
- GI50 [7]: > 100 µM (inactive)
- GI50 [8]: 29.8 µM (inactive)
- GI50 [9]: 43.9 µM (inactive)
- GI50 [10]: > 100 µM (inactive)
- GI50 [11]: 64 µM (inactive)
- GI50 [12]: > 100 µM (inactive)
- GI50 [13]: > 100 µM (inactive)
- GI50 [14]: > 100 µM (inactive)
- GI50 [15]: 94.4 µM (inactive)
- GI50 [16]: 81.5 µM (inactive)
- GI50 [17]: > 100 µM (inactive)
- GI50 [18]: 56.8 µM (inactive)
- GI50 [19]: > 100 µM (inactive)
- GI50 [20]: > 100 µM (inactive)
- GI50 [21]: > 100 µM (inactive)
- GI50 [22]: > 100 µM (inactive)
- GI50 [23]: > 100 µM (inactive)
- GI50 [24]: 64.3 µM (inactive)
- GI50 [25]: > 100 µM (inactive)
- GI50 [26]: 84.7 µM (inactive)
- GI50 [27]: > 100 µM (inactive)
- GI50 [28]: 29.5 µM (inactive)
- GI50 [29]: > 100 µM (inactive)
- GI50 [30]: 38 µM (inactive)
- GI50 [31]: 36.9 µM (inactive)
- GI50 [32]: > 100 µM
- GI50 [33]: > 100 µM (inactive)
- GI50 [34]: > 100 µM (inactive)
- GI50 [35]: 45.9 µM (inactive)
- GI50 [36]: > 100 µM (inactive)
- GI50 [37]: > 100 µM (inactive)
- GI50 [38]: > 100 µM (inactive)
- GI50 [39]: 77.1 µM (inactive)
- GI50 [40]: > 100 µM (inactive)
- GI50 [41]: 43.4 µM (inactive)
- GI50 [42]: > 100 µM (inactive)
- GI50 [43]: 81.8 µM (inactive)
- GI50 [44]: 95.7 µM (inactive)
- GI50 [45]: > 100 µM (inactive)
- GI50 [59]: 55.3 µM (inactive)
- GI50 [46]: 73.5 µM (inactive)
- GI50 [47]: > 100 µM (inactive)
- GI50 [48]: 61 µM (inactive)
- GI50 [49]: 19.8 µM (inactive)
- GI50 [50]: 36.9 µM (inactive)
- GI50 [51]: > 100 µM (inactive)
- GI50 [52]: 72.9 µM (inactive)
- GI50 [53]: > 100 µM (inactive)
- GI50 [54]: > 100 µM (inactive)
- GI50 [55]: > 100 µM (inactive)
- GI50 [57]: 37.9 µM (inactive)
- GI50 [58]: 80.9 µM (inactive)
